Key:
Experiment in all cases: relative viability (nuclei count vs DMSO), 5 days (fraction); higher = more cells survive
Vandetanib + Linsitinib = compound: COc1cc2/c(=N/c3ccc(Br)cc3F)nc[nH]c2cc1OCC1CCN(C)CC1 [Vandetanib] + C[C@]1(O)C[C@@H](c2nc(-c3ccc4ccc(-c5ccccc5)nc4c3)c3c(N)nccn32)C1 [Linsitinib] (partner 1 µM)
Outline: (§1)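 Cells from lung cancer lines were seeded into 1536-well plates and, one day later, dosed by pin tool. Treatments were either a single drug or a fixed dose of an anchor drug with five library-drug doses (not always all listed) in √10 steps. After 5 days, nuclei were stained in a one-step fixation (final 0.05% Triton X-100, 1% formaldehyde, 1 ug/ml Hoechst) and counted on 4× images, and relative viability is the treated-to-vehicle nuclei ratio, as the median of duplicate plates.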

NVP-TAE684 + OSI-027 = compound: COc1cc(N2CCC(N3CCN(C)CC3)CC2)ccc1Nc1ncc(Cl)c(Nc2ccccc2S(=O)(=O)C(C)C)n1 [NVP-TAE684] + COc1cccc2cc(-c3nc([C@H]4CC[C@H](C(=O)O)CC4)n4ncnc(N)c34)[nH]c12 [OSI-027] (partner 0.5 µM)
Outline: as §1

NVP-TAE684 + Crizotinib = compound: COc1cc(N2CCC(N3CCN(C)CC3)CC2)ccc1Nc1ncc(Cl)c(Nc2ccccc2S(=O)(=O)C(C)C)n1 [NVP-TAE684] + C[C@@H](Oc1cc(-c2cnn(C3CCNCC3)c2)cnc1N)c1c(Cl)ccc(F)c1Cl [Crizotinib] (partner 1 µM)
Outline: as §1

[1] = compound: C1=CC=C2C(=C1)N=C(S2)C(C#N)C3=NC(=NC=C3)NCCC4=CN=CC=C4 + O=C(CCCCCCC(=O)Nc1ccccc1)NO [Vorinostat] (partner 1 µM)
Outline: as §1

NVP-TAE684 + Alpelisib = compound: COc1cc(N2CCC(N3CCN(C)CC3)CC2)ccc1Nc1ncc(Cl)c(Nc2ccccc2S(=O)(=O)C(C)C)n1 [NVP-TAE684] + Cc1nc(NC(=O)N2CCC[C@H]2C(N)=O)sc1-c1ccnc(C(C)(C)C(F)(F)F)c1 [Alpelisib] (partner 2 µM)
Outline: as §1

Cell Line: UMC-11
- relative viability (Vandetanib + Linsitinib; first compound 0.02 µM): 0.978
- relative viability (Vandetanib + Linsitinib; first compound 0.06325 µM): 0.994
- relative viability (Vandetanib + Linsitinib; first compound 0.2 µM): 0.97
- relative viability (Vandetanib + Linsitinib; first compound 0.6325 µM): 0.885
- relative viability (Vandetanib + Linsitinib; first compound 2 µM): 1
- relative viability (NVP-TAE684 + OSI-027; first compound 0.2 µM): 0.412
- relative viability (NVP-TAE684 + OSI-027; first compound 0.6325 µM): 0.438
- relative viability (NVP-TAE684 + OSI-027; first compound 2 µM): 0.282
- relative viability (NVP-TAE684 + Crizotinib; first compound 0.2 µM): 0.45
- relative viability (NVP-TAE684 + Crizotinib; first compound 0.6325 µM): 0.459
- relative viability (NVP-TAE684 + Crizotinib; first compound 2 µM): 0.145
- relative viability ([1]; first compound 0.01581 µM): 0.36
- relative viability ([1]; first compound 0.05 µM): 0.402
- relative viability ([1]; first compound 0.1581 µM): 0.42
- relative viability ([1]; first compound 0.5 µM): 0.422
- relative viability (NVP-TAE684 + Alpelisib; first compound 0.2 µM): 0.961
- relative viability (NVP-TAE684 + Alpelisib; first compound 0.6325 µM): 0.915
- relative viability (NVP-TAE684 + Alpelisib; first compound 2 µM): 0.213

Reference: the supplement of paper PMC10307832
